Measured values taken from publication PMC5423902, “CXCL9-Derived Peptides Differentially Inhibit Neutrophil Migration In Vivo through Interference with Glycosaminoglycan Interactions” (Frontiers in Immunology, 2017).
Peptide text beside a SMILES is read from it. * marks the point of attachment. 5TAMRA = CN(C)c1ccc2c(c1)Oc1cc(N(C)C)ccc1C21OC(=O)c2cc(C(=O)*)ccc21

Columns and labels:
[1] = test system: HS expression on CHO cells; experiment: HS expression on CHO cells after NaClO3 treatment, flow cytometry; type: cell-based, Chinese hamster; details: 100 mM NaClO3, 24 h; anti-HS antibody; data not shown
Experimental: Chinese hamster ovary (CHO) cells were a gift from M. Parmentier (ULB, Brussels, Belgium) and were cultured in Ham’s F-12 medium (with L-glutamine; Lonza, Belgium) supplemented with 10% fetal calf serum (FCS) and 0.8% G418 (Geneticin®; Life Technologies), as described ([44]). To inhibit sulfation of cellular GAGs, CHO cells were cultured in the presence of 100 mM sodium chlorate (NaClO3) for 24 h as previously described ([42]).
Binding of biotinylated CXCL9(74-103) and CXCL9(74-93) to CHO cells was assessed by flow cytometry as recently described ([42]). Briefly, cells were detached with phosphate-buffered saline (PBS) with 0.02% ethylenediaminetetraacetic acid (EDTA) and incubated with NH2-terminally biotinylated peptides. Subsequently, cells were incubated with streptavidin-allophycocyanin (BD Biosciences, San Jose, CA, USA) and analyzed by flow cytometry (FACSCalibur, BD Biosciences). To confirm inhibition of sulfation of cellular GAGs, part of the cells were stained with a mouse monoclonal anti-human HS antibody (Immunosource, Schilde, Belgium) and a secondary phycoerythrin-labeled goat anti-mouse antibody (BD Biosciences). Finally, cells were analyzed by flow cytometry. Analogously, binding of 100 nM biotinylated CXCL8 in the presence or absence of CXCL9(74-103) or CXCL9(74-93) was compared on CHO cells.

[2] = test system: CXCL8(1-77) binding to heparin; experiment: Competition with CXCL8 for binding to immobilized heparin (ELISA-like); set-up: species or system human; details: heparin-coated plates, n ≥ 4
Experimental: (§1) The ability of the COOH-terminal peptides of CXCL9 and CXCL4 to compete for GAG binding with the inflammatory chemokines CXCL8 and CXCL1 was evaluated on heparin-binding plates [BD Biosciences or produced by Jason Whittle (School of Engineering/Future Industries Institute, University of South Australia, Australia)] ([42], [47]). In brief, GAGs (heparin, HS, and CS; Iduron; 25 µg/ml) were coated overnight at room temperature. Dilutions of COOH-terminal CXCL9 or CXCL4 peptide combined with recombinant human CXCL8(1-77) or recombinant murine CXCL1(1-72) (Peprotech, Rocky Hill, NJ, USA) were added in duplicate and incubated for 2 h at 37°C. Subsequently, bound CXCL8 or CXCL1 was detected with biotinylated polyclonal rabbit anti-human CXCL8 or biotinylated polyclonal goat anti-mouse CXCL1 (Peprotech) and horse radish peroxidase-labeled streptavidin. Finally, the peroxidase activity was quantified at 450 nm.
(§2) Figure 3 CXCL9(74-93) competes with CXCL8 for binding to heparin, heparan sulfate (HS), and cellular glycosaminoglycans (GAGs). Competition between CXCL8 and COOH-terminal CXCL9 or CXCL4 peptides for binding to immobilized heparin (A) or HS (B) and to Chinese hamster ovary (CHO) cells (C) was performed. […] Bound CXCL8 was detected with biotinylated anti-human CXCL8 antibodies. (C) Binding of NH2-terminally biotinylated CXCL8(1-77) (300 nM) to CHO cells in the presence or absence of an excess CXCL9 peptide was detected by streptavidin-allophycocyanin and flow cytometry. The mean (± SEM) percentage inhibition of binding of CXCL8(1-77) to heparin, HS or cellular GAGs is indicated on the y-axis (n ≥ 4). Statistical comparison of the different competitors with CXCL9(74–103) was performed using the Mann–Whitney U-test (*p < 0.05).

[3] = test system: cellular GAGs on CHO cells; details: binds dose-dependently to GAGs on CHO cells; cited from earlier work
[4] = test system: CXCL8(1-77) binding to heparan sulfate (HS); experiment: Competition with CXCL8 for binding to immobilized HS (ELISA-like); set-up: species or system human; details: CXCL8(1-77) 0-300 nM, n ≥ 4, Figure 3B
Experimental: as §1, §2

[5] = test system: CXCL8-induced neutrophil migration; experiment: CXCL8-induced neutrophil migration to the peritoneal cavity; type: in vivo, mouse (NMRI); details: 108 µg peptide i.p.; data not shown
Experimental: In vivo neutrophil extravasation to the peritoneal or the knee cavity was examined, respectively, by intraperitoneal or intra-articular injection, of endotoxin-free recombinant CXCL8(1-77) (PeproTech) or vehicle (PBS) in female NMRI or C57BL/6 mice, as described previously ([42], [48]). Simultaneously, synthetic CXCL9 peptide was co-injected either intraperitoneally or injected intravenously. After 2 h (peritoneal cavity) or 3 h (knee cavity), mice were sacrificed. The peritoneal cavity was washed with saline enriched with 2% FCS and 20 U/ml heparin and total leukocyte counts were determined. For the preparation of cytospins, 10^5 cells were used and absolute number and percentage of neutrophils in the lavages were determined in duplicate independently by two researchers by differential microscopic counting. The cells present in the tibiofemoral articulation were harvested by washing the cavity with 10 µl of 3% (w/v) bovine serum albumin in PBS and diluted in 90 µl of 3% (w/v) bovine serum albumin in PBS. The number of total leukocytes was determined by counting leukocytes in a Neubauer chamber after staining with Turk’s solution. Differential counts were obtained from cytospin preparations by evaluating the percentage of each leukocyte type on a slide stained with May-Grunwald-Giemsa solution.
Figure 4 The COOH-terminal peptides of CXCL9 inhibit CXCL8-induced neutrophil migration to the peritoneal cavity. CXCL8(1-77) was injected into the peritoneal cavity of NMRI mice (n ≥ 5) simultaneously with an intraperitoneal (A) or intravenous (B,C) injection of CXCL9(74-103) or CXCL9(74–93). The number of neutrophils in the peritoneal cavity, 2 h post injection, were evaluated by differentially counting the leukocyte subtypes on Hemacolor-stained cytospins. The neutrophil counts are shown for every individual mouse, and the horizontal lines denote the median percentage. To detect statistically significant differences, the Mann–Whitney U-test was carried out (*p < 0.05; **p < 0.01; ***p < 0.005).

[6] = test system: CXCL1(1-72) binding to heparan sulfate (HS); experiment: Competition with CXCL1 for binding to immobilized HS; set-up: species or system murine; details: n ≥ 3; Figure 6A
Experimental: as §1
Competition between CXCL1 and COOH-terminal CXCL9 peptides for binding to immobilized heparan sulfate (HS) (A) and chondroitin sulfate (CS) (B) was performed. […] Bound CXCL1 was detected with biotinylated polyclonal goat anti-mouse CXCL1 antibodies. The mean (± SEM) percentage inhibition of CXCL1 binding to GAGs is indicated on the y-axis (n ≥ 3). Statistical comparison of the different competitors with CXCL9(74–103) was performed using the Mann–Whitney U-test.

[7] = test system: CXCL8-induced neutrophil migration; details: cited from earlier work
[8] = Plasma level of intravenously injected fluorescent CXCL9(74-103); type: in vivo, mouse; details: spectrofluorometric
Text: Intravenously injected fluorescent CXCL9(74-103) was detected in plasma after different time intervals by spectrofluorometric analysis and quantified against murine plasma spiked with known concentrations of the fluorescent peptide.

**Q.** With [Na+].[O-][Cl+2]([O-])[O-] [NaClO3, sodium chlorate] as the compound, how does the “reduction of HS expression on CHO cells” value [1] read?
**A.** 71.4%

**Q.** For “47NGRKICLDLQAPLYKKIIKKLLES70 [CXCL4(47-70), COOH-terminal peptide of CXCL4, reference compound]”, which “molar excess over CXCL8 giving 50% reduction of CXCL8 binding to heparin” value ([2]; CXCL8(1-77) 0-300 nM, 2 h at 37°C, anti-CXCL8 detection, 450 nm, Figure 3A) is on record?
**A.** more than 100 fold molar excess

**Q.** And the “competition with CXCL8 for heparin binding (relative potency)” value ([2]; Figure 3)?
**A.** less potent competitor of CXCL8 binding than the CXCL9 peptides

**Q.** What about the “affinity for GAGs on CHO cells relative to CXCL9(74-103)” value [3] of the same compound?
**A.** about fivefold lower affinity than CXCL9(74-103)

**Q.** For “86KKVLKVRKSQRSRQKKTT103 [CXCL9(86-103), COOH-terminal peptide of CXCL9]”, which “inhibition of CXCL8 binding on HS-coated plates” value [4] is on record?
**A.** poorly competing

**Q.** And the “inhibition of CXCL8-induced neutrophil migration to peritoneal cavity” value [5]?
**A.** did not inhibit CXCL8-induced neutrophil migration

**Q.** And the “competition for CXCL1 binding to HS” value [6]?
**A.** not able to inhibit the interaction between CXCL1 and HS

**Q.** What about the “inhibition of chemotactic activity of CXCL8 in vivo” value [7] of the same compound?
**A.** unable to inhibit chemotactic activity of CXCL8 in vivo

**Q.** For CC(C)C[C@H](NC(=O)[C@@H](NC(=O)[C@H](CCCCN)NC(=O)[C@H](CCCCN)NC(=O)[C@H](CCCCN)NC(=O)[C@H](CCC(N)=O)NC(=O)[C@H](Cc1c[nH]cn1)NC(=O)[C@H](CCCCN)NC(=O)[C@H](CCCCN)NC(=O)CNC(=O)[C@H](CC(N)=O)NC(=O)[C@H](CCCCN)NC(=O)[C@H](CCC(N)=O)NC(=O)[C@H](CCCCN)NC(=O)[C@H](CCCCN)NC(=O)[C@H](CCCCN)NC(=O)c1ccc2c(c1)C(=O)OC21c2ccc(N(C)C)cc2Oc2cc(N(C)C)ccc21)C(C)C)C(=O)N[C@@H](CCCCN)C(=O)N[C@H](C(=O)N[C@@H](CCCNC(=N)N)C(=O)N[C@@H](CCCCN)C(=O)N[C@@H](CO)C(=O)N[C@@H](CCC(N)=O)C(=O)N[C@@H](CCCNC(=N)N)C(=O)N[C@@H](CO)C(=O)N[C@@H](CCCNC(=N)N)C(=O)N[C@@H](CCC(N)=O)C(=O)N[C@@H](CCCCN)C(=O)N[C@@H](CCCCN)C(=O)N[C@H](C(=O)N[C@H](C(=O)O)[C@@H](C)O)[C@@H](C)O)C(C)C [TAMRA-CXCL9(74-103)] (5TAMRA-KKKQKNGKKHQKKKVLKVRKSQRSRQKKTT-OH), which “fraction of injected amount detected in plasma” value ([8]; 5 min after i.v. injection, assuming a blood volume of 3 ml) is on record?
**A.** 3%

**Q.** What about the level at 5 min ([8]; mouse, plasma, iv, 5 min after i.v. injection, read-out: plasma concentration) of the same compound?
**A.** 2000 ng/mL

**Q.** What about the level at 1 h ([8]; mouse, plasma, iv, 1 h after i.v. injection, no circulating peptide detected, read-out: plasma concentration) of the same compound?
**A.** < 240 ng/mL
